In patent US11046722B2, “Sulphated disaccharides for the treatment of neuropathic pain” (BIOIBERICA, S.A.U., priority 2017, dated 2021):

Assays:
[1] = tested on: cold allodynia induced in mice by subcutaneous carrageenan injection; experiment: Cold allodynia induced by subcutaneous carrageenan injection (acetone test, time spent licking the paw); assay type: in vivo; conditions: carrageenan 1% 50 μl s.c., 60 mg/Kg orally 3.5 hours after injection, acetone test 45 minutes after treatment
Text: In Example 4 an experimental model is used of cold allodynia induced in mice by subcutaneous carrageenan injection, as described in the article by Choi et al., Behavioral signs of ongoing pain and cold allodynia in a rat model of neuropathic pain, Pain, 1994, 59 (3), 369-376. This trial is based on causing cold allodynia in mice by subcutaneous carrageenan injection in the plantar surface of one of the hind paws of the animals, and subsequently measuring the sensitivity to cold by applying acetone on the plantar surface of both hind paws: the ipsilateral (the same one where the carrageenan was injected) and the contralateral (the unsensitized hind paw). The sensitivity to cold is quantified by measuring the time the animals spent licking the paw for 5 minutes after the application of the acetone. As described in such example, compound Ic is effective in reversing the cold allodynia according to this model (FIG. 6).
In this trial 16 mice were used to which 50 μl of a carrageenan solution at 1% were administered by subcutaneous injection in the plantar surface of one of the hind paws. After 3.5 hours since the injection, 60 mg/Kg of the Ic compound was administered orally to 9 of the animals, while only the vehicle (saline solution) was administered to the remaining 7 (control group). […]

[2] = tested on: mechanical allodynia induced in mice by intraplantar capsaicin injection; experiment: Mechanical allodynia induced by intraplantar capsaicin injection (von Frey, latency to paw withdrawal); assay type: in vivo
Text: Thus, in Example 1, an experimental trial is described performed on mice with mechanical allodynia induced by intraplantar capsaicin injection, according to the model described in the article by Entrena et al., Antagonism by haloperidol and its metabolites of mechanical hypersensitivity induced by intraplantar capsaicin in mice: role of sigma-1 receptors, Psychopharmacology, 2009, 205, 21-33. This trial is based on hypersensitivity induced in the mice by means of injecting capsaicin in the right hind paw. The allodynia is quantified by measuring the decrease in latency time in the hypersensitized mice until paw withdrawal, when a mechanical stimulus is applied to it.
For this trial, 6 groups of mice were used with between 8 and 12 animals in each group. […] 15 minutes after the injection, different mechanical stimuli were applied with a von Frey filament with a force of 0.5 g in an esthesiometer, and the values of the latency time until paw withdrawal were recorded. […]
In order to quantify the anti-allodynic effect, a value of 100% allodynia was assigned to the latency time of the animals injected with capsaicin and without pharmacological treatment (only treated with the vehicle). […]

CO[C@H]1O[C@H](COS(=O)(=O)[O-])[C@@H](OS(=O)(=O)[O-])[C@H](O[C@@H]2O[C@H](C(=O)[O-])[C@@H](O)[C@H](O)[C@H]2O)[C@H]1NC(C)=O.[Na+].[Na+].[Na+] [Compound Ic, methyl 2-acetamido-2-desoxi-3-O-(β-D-glucopyranosyluronic acid)-4,6-di-O-sulfo-α-D-glucopyranoside trisodium salt]
reversal of cold allodynia (ipsilateral paw) [1]: completely reversed | anti-allodynic effect ([2]; capsaicin 1 μg intraplantar, 3, 10 and 30 mg/Kg by gavage 45 minutes before the trial, effect dose-dependent): notable anti-allodynic effect | reduction of the allodynia ([2]; capsaicin, highest dose 30 mg/Kg by gavage 45 minutes before the trial, 100% = capsaicin + vehicle): more than 50%
